# Numbering of substitutions follows the chain as printed.
# B1: maize HPPD: Maize WT HPPD (from WO1997049816 SEQ ID NO: 11), SEQ ID NO: 10 (protein)
# chain: MPPTPTAAAAGAAVAAASAAEQAAFRLVGHRNFVRFNPRSDRFHTLAFHHVELWCADAASAAGRFSFGLGAPLAARSDLSTGNSAHASLLLRSGSLSFLFTAPYAHGADAATAALPSFSAAAARRFAADHGLAVRAVALRVADAEDAFRASVAAGARPAFGPVDLGRGFRLAEVELYGDVVLRYVSYPDGAAGEPFLPGFEGVASPGAADYGLSRFDHIVGNVPELAPAAAYFAGFTGFHEFAEFTTEDVGTAESGLNSMVLANNSENVLLPLNEPVHGTKRRSQIQTFLDHHGGPGVQHMALASDDVLRTLREMQARSAMGGFEFMAPPTSDYYDGVRRRAGDVLTEAQIKECQELGVLVDRDDQGVLLQIFTKPVGDRPTLFLEIIQRIGCMEKDEKGQEYQKGGCGGFGKGNFSQLFKSIEDYEKSLEAKQAAAAAAAQGS
# modifications: Zea mays
# B2: Maize wt: wild-type maize HPPD protein (SEQ ID NO: 9) expressed in E. coli (protein)
# chain: B1 chain with P2G
# modifications: Zea mays
# Legend:
# maize cell chloroplasts = experiment: Agro-infiltration of maize leaves with G. max HPPD N-terminus AcGFP1 fusions; format: cell-based, Zea mays; details: 4-week old maize seedlings, three days after infiltration
# From the text: Vectors were constructed in which a portion of the gene coding for the G. max HPPD N-terminus was fused to a gene encoding Aequorea coerulescens green fluorescent protein 1 (AcGFP1) and inserted into a binary expression vector under control of the Arabidopsis Ubiquitin 10 promoter (Norris et al. (1993) Plant Mol. Biol. 21, 895-906) and terminated with the Glycine max Kunitz trypsin inhibitor 3 terminator region (NCBI accession S45092). Both genes were between left and right border sequences from Agrobacterium. One fusion contained amino acid residues 1-86 of the long Gm HPPD protein (SEQ ID NO:57). […]
# A positive control vector was identical except that the AcGFP1 coding region was fused to the 6H1 synthetic chloroplast targeting peptide (U.S. Pat. No. 7,345,143), while a negative control was AcGFP1 with no targeting sequence. […] Agro-infiltration is a well described method (Kapila et. al. (1997) Plant Science, 122:101-108) of introducing an Agrobacterium cell suspension to plant cells of intact tissues so that reproducible infection and subsequent plant trans-gene expression may be measured or studied.
# Leaves of 4-week old maize seedlings were infiltrated with the Agrobacterium, and examined by fluorescence microscopy three days later (Nikon Eclipse 80i, Narrow band-pass GFP filter set). […]
# [1] = tested on: G. max leaf cell chloroplasts; experiment: Transient expression of Gm HPPD-AcGFP fusion proteins in soy leaf discs; format: cell-based, Glycine max
# From the text: Transient expression experiments indicate that the long HPPD protein (SEQ ID NO: 57) is imported to chloroplasts, while the short protein (SEQ ID NO: 59) remains in the cytosol. Plant expression cassettes were constructed fusing portions of the N terminus of Gm HPPD to an Aequorea coerulescens green fluorescent protein 1 (AcGFP1). One fusion contained amino acid residues 1-86 of the long Gm HPPD protein. Another contained residues 1-44 of the short HPPD protein (this corresponds to residues […] of the long protein). These cassettes were incorporated into binary vectors which also contained an untargeted DsRed2 expression cassette and introduced into A. tumefaciens strain AGL 1 and then used to infect leaf discs of G. max as described in Example 3 of U.S. Utility application Ser. No. 13/209,017, now issued U.S. Pat. No. 8,993,837, entitled “Chimeric Promoter and Methods of Use”, filed concurrently herewith and herein incorporated by reference in its entirety.
# maize leaf chloroplasts = experiment: Agro-infiltration of maize leaves with DsRed2 fusions, fluorescence microscopy; format: cell-based, Zea mays; details: Example 16, assayed as described in Example 4
# From the text: A vector was constructed in which the portion of the maize HPPD (SEQ ID NO: 9) gene coding for the N-terminal 50 amino acids was fused to the gene coding for Discosoma sp. red fluorescence protein 2 (DsRed2) and inserted into a binary expression vector under control of the maize Rubisco activase promoter (Liu et al. (1996) Plant Physiol. 112(1): 43-51) and terminated with the Solanum tuberosum proteinase inhibitor II (pinII) terminator region (An et al. (1989) Plant Cell 1:115-122) with a hygromycin selection cassette. Both genes are between left and right border sequences from Agrobacterium.
# A positive control vector was identical to the vector having the N-terminal 50 amino acids of maize HPPD described above except that the HPPD CTP was removed and the DsRed2 insert was fused to the chloroplast targeting peptide of Zea maize rubisco activase, while a negative control was DsRed2 with no targeting sequence. […] Agro-infiltration is a well described method (Kapila et. al. (1997) Plant Science, 122:101-108) of introducing an Agrobacterium cell suspension to plant cells of intact tissues so that reproducible infection and subsequent plant derived trans-gene expression may be measured or studied.
# Leaves of 3-week old maize seedlings were infiltrated with the Agrobacterium, and examined by fluorescence microscopy two days later (Nikon Eclipse 80i, DsRed filter set). […]
# sorghum leaves plastids = experiment: Agro-infiltration of sorghum leaves with DsRed fusions; format: cell-based
# [2] = tested on: stably transformed soybean cells; experiment: Immunogold localization of maize HPPD in stably transformed soybean leaf; format: cell-based, Glycine max; details: anti-maize HPPD antibody
# From the text: Polyclonal antibodies were raised in rabbits against recombinant maize HPPD protein purified by nickel chelate affinity chromatography. Anti-HPPD antibodies were purified from serum by affinity chromatography on immobilized maize HPPD, and further purified by passage through a column of immobilized Rubisco, to remove a small fraction of antibodies that reacted with both HPPD and Rubisco. Leaf punches taken form stably transformed soybean plants expressing a gene encoding the maize HPPD protein (SEQ ID NO: 10) driven by an SCP1 synthetic promoter (U.S. Pat. No. 6,072,050) were fixed in 2% paraformaldehyde, 0.25% glutaraldehyde in 100 mM Na phosphate buffer, pH 7.0, for 3 hours at room temperature, dehydrated by passage through progressively higher concentrations of ethanol, embedded in LR White resin and cured at 55° C. for 48 hours. Sections (0.9 microns) were transferred onto Excell Adhesion glass microscope slides (Electron Microscopy Sciences). Immunolocalization was performed with the primary antibody being the double-purified anti-maize HPPD (1:200) and the secondary antibody goat anti-rabbit F(ab′) conjugated with gold particles (Aurion ultrasmall gold). Gold labeling was followed by silver enhancement (Aurion R-GENT SE-EM). […] Material was analyzed with a YAG detector for backscatter signal in a Hitachi 54800 scanning electron microscope. […]
# maize HPPD = experiment: HPPD activity assay of maize HPPD variants expressed in E. coli; format: biochemical, Zea mays; details: N-terminal truncated variants of maize wild-type HPPD, single measurement
# From the text: Organellar targeting sequences are usually cleaved after the peptide enters the organelle. Previous investigators (Fritze I et al. (2004) Plant Physiology 134:1388-1400; Yang C et al. (2004) Biochemistry 43: 10414-10423) have shown that native mature maize HPPD begins at either ala17 or ala23. Variants of the wild-type maize HPPD protein coding region were created with various lengths of the amino terminus removed. The sequences were expressed in E. coli and tested for activity and stability. In each case a methionine start codon was added to the truncated sequence. Proteins were designated by the position of their N-terminal amino acid (all alanines) as in SEQ ID NO: 9. All N-terminal truncated proteins retained the HPPD activity. […] Assaying HPPD activity was carried out as described in Example 1 of Provisional Application 61/401,456, filed Aug. 13, 2010, Compositions and Methods Comprising Sequences having Hydroxyphenylpyruvate Dioxygenase (HPPD) Activity, herein incorporated by reference in it entirety.
molecule,measurement,setting,value
residues 42-86: residues 1-44 of the short Gm HPPD protein (42-86 of the long protein) fused to AcGFP1,AcGFP marker protein localization,maize cell chloroplasts,delivered the protein to the cytosol
same,AcGFP green fluorescence localization,[1],green fluorescence is visible only in the cytoplasm
MPPTPTTAAATGAGAAAAVTPEHAAFRLVGHRRFVRFNPRSDRFHTLAFHHVE [53 amino acid consensus sequence],DsRed localization,maize leaf chloroplasts,effectively targeted DsRed to maize plastids
same,DsRed reporter localization,sorghum leaves plastids,efficiently targeted the DsRed reporter protein to plastids
B1,gold labeling localization,[2],"mainly in cytosol and nuclei, but also in chloroplasts"
B2,kcat,maize HPPD,2.77 s⁻¹
